{"source": "patent US7589080B2", "about": "“β-cyclodextrin compositions, and use to prevent transmission of sexually transmitted diseases” (priority 2000, dated 2009)", "key": {"[1]": {"tested_on": "HIV-1RF chronically infected Jurkat cells", "assay": "Virus precipitation with MAbs after β-cyclodextrin treatment of infected cells", "assay_type": "cell-based", "procedure": "Infected Jurkat cells (3×10^6) were treated with 20 mM hydroxypropyl-β-cyclodextrin (2-OH-βCD; Cyclodextrin Technologies Development, Inc.; Gainesville Fla.) in 3 ml of cRPMI or with cRPMI alone for 1 hr at 37° C. Cells were washed with PBS, then allowed to produce virus in 3 ml of cRPMI at 37° C. for 2 hr. Viral supernatants were clarified through a 0.45 Tm filter, and […] of MAb (10 mg/ml) in 5% NGS-PBS, and the mixture was incubated for 1 hr on ice. Pansorbin (SaC) (50 mg; Calbiochem; San Diego Calif.) was added to the solution and incubated for 20 min on ice. Complexes were washed sequentially with 10X and 1X PBS. Precipitated virus was lysed with […] of 1% Triton X-100 in cRPMI. Lysates were diluted, and p24 was quantitated by standard p24 ELISA.\nThe effects of 2-OH-βCD, a cellular cholesterol efflux inducing molecule, on the incorporation of host molecules into virions also was examined. By removing cholesterol, 2-OH-βCD is believed to partially perturb organized lipid rafts, resulting in dispersal of their components (Ilangumaran and Hoessli, Biochem. J. 335:433-440, 1998)."}, "[2]": {"tested_on": "CD4+ HIV-susceptible target cells", "assay": "Cell viability, growth and function after 2-OH-βCD treatment", "assay_type": "cell-based", "from_the_text": "The role of lipid rafts in the HIV-1 fusion process was examined by treating CD4+HIV-susceptible target cells with 2-OH-βCD to deplete membrane cholesterol and disperse lipid rafts.\nLoss of CXCR function in regulating LFA-1 could also explain the lower binding of HIV-1 to βCD-treated cells observed previously (Liao et al., supra, 2000; Orentas and Hildreth, supra, 1993). […] The ability of βCD treatment of cells to affect control of LFA-1 function by CXCR4 also was examined. Jurkat cells were treated with 2-OH-βCD or medium alone, then were added to the wells of culture plates coated with soluble recombinant ICAM-Ig. SDF-1, a CXCR4-specific chemokine that triggers LFA-1 function, was added to trigger binding of LFA-1 to ICAM-1. Control cells responded to SDF-1 and, as expected, bound very well to ICAM-Ig. […] CXCR4-specific gp120 triggers the same responses through CXCR4 as SDF-1 (Iyengar et al., J. Immunol. 162:6263-6267, 1999).\n(§1) βCD treatment blocks HIV-1 virus infection. HIV-1 can spread in cell cultures without necessarily exerting cytopathic effects. […] To test the effects of cholesterol depletion on HIV-1 infection of primary T cells by free virus, PHA blasts were treated with 10 mM 2-OH-βCD or medium alone, then were exposed to HIV-1 for 2 hr before washing to remove input virus. Viability and growth of the PHA blasts was not affected by treatment with the βCD under the conditions used. P24 release was measured after an addition 6 days in culture. Two primary strains of HIV-1, 97.099 and 97.534, M-tropic (R5) and dual-tropic (X4R5), respectively, were tested.\nThe effects of βCD treatment on HIV infectivity were measured in a sensitive single-cycle infection assay based on a cell line transfected with an LTR-luciferase cassette. […] Quantitative measurements of single round infection are obtained with this assay system (Roos et al., Virology 273:307-315, 2000, which is incorporated herein by reference). Viability of LuSIV cells as determined by trypan blue exclusion and proliferation was not affected by 2-OH-βCD treatment. βCD treatment of LuSIV cells reduced HIV infection by almost 100%, and the effects were readily seen at all viral input levels."}, "[3]": {"tested_on": "HIV-1 primary strain 97.099, M-tropic (R5)", "assay": "Primary virus infection assay, isolate 97.099", "assay_type": "cell-based", "details": "PHA blasts treated with 10 mM; p24 after 6 days", "procedure": "(§2) Peripheral blood mononuclear cells (PBMCS) were isolated by Ficoll-Hypaque centrifugation from buffy coats obtained from the Johns Hopkins Hemapheresis Center. Cells were stimulated for 3 days with 3 Tg/ml PHA, washed with iRPMI, and treated with 10 mM 2-OH-βCD in cRPMI for 1 hr. Cells were then washed twice with iRPMI and resuspended in cRPMI (1×10^6/ml) supplemented with 50 U/ml IL-2 and containing primary HIV-1 strains at 20 ng/ml p24. Cells were incubated with virus for 24 hr at 37° C. before washing twice with iRPMI. Cells were then resuspended in cRPMI supplemented with 50 U/ml IL-2 and cultured for 6 days at 37° C. Supernatants were collected and p24 was quantitated by standard p24 ELISA.\nas §1"}, "[4]": {"tested_on": "HIV-1 primary strain 97.534, dual-tropic (X4R5)", "assay": "Primary virus infection assay, isolate 97.534", "assay_type": "cell-based", "details": "PHA blasts treated with 10 mM; p24 after 6 days", "procedure": "as §2, §1"}, "HSV-2 strain G": {"tested_on": "HSV-2 strain G", "assay": "HSV mouse vaginal challenge model", "assay_type": "in vivo, CD-1 mice", "details": "HSV-2 preincubated with 3%, intravaginal 1×10^4 TCID50; p=0.022", "procedure": "The ability of 2-OH-βCD to reduce the infectiousness of HIV-1 (Examples 2 and 3) led to an investigation as to the general applicability of βCDs to prevent the transmission of other sexually transmitted enveloped viruses. A well characterized HSV mouse vaginal challenge model was used to examine the effect of 2-OH-βCD on HSV-2 infection (Sherwood et al., supra, 1996). Adult female CD-1 mice (Charles River Breeding Laboratories; Wilmington Mass.) were injected subcutaneously with Depo-Provera® progestin (2 mg) to increase their sensitivity, then one week later the mice were inoculated intravaginally with 1×10^4 TCID50 of cell-free HSV-2 strain G (10 ID50) using a WIRETROL capillary micropipette (Drummond Scientific; Broomall Pa.). Infection was confirmed by lavage culture on newborn foreskin fibroblast cells (Biowhitaker). Prior to inoculation, HSV-2 was preincubated either with 3% 2-OH-βCD or with buffer."}, "[5]": {"details": "infected Jurkat cells treated with 20 mM for 1 hr at 37° C, P<0.05"}}, "data": [{"substance": "2-hydroxypropyl-β-cyclodextrin [2-OH-βCD]", "values": [{"measurement": "Overall cellular release of p24", "setting": "[1]; infected Jurkat cells after treatment", "result": "increased"}, {"measurement": "CD45 capture of HIV-1", "setting": "[1]; infected Jurkat cells treated with 20 mM for 1 hr at 37° C", "result": "remained mostly unaffected"}, {"measurement": "Capture of HIV-1 by MAb against CD59, percentage of total p24", "setting": "[1]; [5]", "result": "decreased substantially"}, {"measurement": "Capture of HIV-1 by MAb against gp41, percentage of total p24", "setting": "[1]; [5]", "result": "decreased substantially"}, {"measurement": "Decrease in capture of HIV-1 through Thy-1", "setting": "[1]; infected Jurkat cells treated with 20 mM for 1 hr at 37° C, P=0.08", "result": "not statistically significant"}, {"measurement": "Viability and growth of the PHA blasts", "setting": "[2]; 10 mM", "result": "not affected"}, {"measurement": "Cell viability by Trypan Blue exclusion", "setting": "[2]; 10 to 20 mM for 1 hr at 37° C", "result": "without any loss in cell viability"}, {"measurement": "Cell viability", "setting": "[2]; Jurkat cells, adhesion assay", "result": "no effect on cell viability"}, {"measurement": "Viability of LuSIV cells by trypan blue exclusion and proliferation", "setting": "[2]; LuSIV cells", "result": "not affected"}, {"measurement": "Cell growth after treatment", "setting": "[2]; placed back into culture in cholesterol-containing medium", "result": "continued to grow normally"}, {"measurement": "Ca2+ flux responses to anti-CD3 MAb", "setting": "[2]; treated Jurkat cells", "result": "still showed Ca^2+ flux responses"}, {"measurement": "Infection of PHA blasts by HIV isolate 97.099 (p24 release)", "setting": "[3]", "result": "completely inhibited"}, {"measurement": "Inhibition of infection of PHA blasts by isolate 97.534 (p24 release)", "setting": "[4]", "result": "more than 70%"}, {"measurement": "Mice that became infected", "setting": "HSV-2 strain G", "result": "5 of 10"}]}]}
